Measured values as given in patent US20130310306A1, “HUMAN LACTOFERRIN DERIVED PEPTIDES AND THEIR USE” (PharmaSurgics In Sweden AB, priority 2011, published 2013).
“Also recorded” adds a separate entry of the source.

Key:
[1] = system: K. pneumoniae (ATCC 13883); assay: MMC99 assay, K. pneumoniae; format: cell-based; settings: Table 8B
Method: (§1) The antimicrobial effects of the peptide 265 (SEQ ID NO: 27) was analysed by MMC99 (minimal microbicidal concentration) assay against S. aureus (CCUG 1800), MRSA (CCUG 41879), P. aeruginosa (ATCC 15442), E. coli (CCUG 31246), S. pyogenes (CCUG 4207), P. acnes (CCUG 1794T), S. epidermidis (ATCC12228), K. pneumoniae (ATCC 13883), A. baumannii (ATCC 19606), and C. albicans (ATCC 64549). The peptides were purchased from Biopeptide Company (San Diego, Calif., USA) and Bachem AG (Bubendorf, Switzerland) and results are presented in Table 8A and 8B respectively.
(§2) Peptide was serially diluted in two different assay medium, 1% BHI medium (brain-heart infusion medium) or 50% heat inactivated simulated wound fluid (SWF), and thereafter incubated with the microorganisms for 2 hours. Drops of the suspension were placed on blood agar plates. The MMC99 values, i.e. the lowest peptide concentration needed to achieve a 99% reduction of viable microorganisms, were recorded. As presented in Table 8, the peptide has the ability to kill microorganisms frequently appearing in infections.

E. coli (CCUG 31246) = assay: MMC99 assay, E. coli; format: cell-based; settings: Table 8A
Method: as §1, §2

[2] = system: P. aeruginosa (ATCC 15442); assay: MMC99 assay, P. aeruginosa; format: cell-based; settings: Table 8A
Method: as §1, §2

[3] = system: A. baumannii (ATCC 19606); assay: MMC99 assay, A. baumannii; format: cell-based; settings: Table 8B
Method: as §1, §2

[4] = system: TNF-α production in LPS stimulated THP-1 cells; assay: Inhibition of TNF-α production in LPS stimulated THP-1 cells (ELISA); settings: screen 2, mean relative secretion
[5] = system: S. epidermidis (ATCC12228); assay: MMC99 assay, S. epidermidis; format: cell-based; settings: Table 8B
Method: as §1, §2

P. acnes (CCUG 1794T) = assay: MMC99 assay, P. acnes; format: cell-based; settings: Table 8A
Method: as §1, §2

C. albicans (ATCC 64549) = assay: MMC99 assay, C. albicans; format: cell-based; settings: Table 8B
Method: as §1, §2

S. aureus = assay: Antimicrobial effect in infected wounds, ex vivo model on pig skin; settings: S. aureus in PBS/serum (50/50); peptide in H2O 0.1, 0.5 and 2 mg/ml, single administration, four hours; vs placebo (H2O)
From the text: (§3) FIG. 5. Dose response effect of peptide 265 (A), on bacterial colonization of infected wounds in pig skin. […] Results are presented as relative bacterial survival (%) compared to control group ±SEM (n=10 wounds). Statistical significance was estimated by Student's t test. *=p<0.05, **=p<0.01, ***=p<0.001.
The antimicrobial effects of the peptide 265 (SEQ ID NO: 27) was investigated in an ex vivo model on pig skin. The wounds were inoculated with S. aureus in the presence of PBS/Serum 50/50. Two hours after inoculation the wounds were treated with a single administration of the peptide or placebo (H2O). Four hours after the treatment bacteria were harvested and viable counts of each wound were determined.

S. aureus (CCUG 1800) = assay: Minimal microbicidal concentration (MMC99) assay, S. aureus; format: cell-based
Method: Antimicrobial Activity was Measured as Bactericidal Effect on S. Aureus Using Minimal Microbicidal Concentration, MMC99, Assay)
S. aureus (#1800; CCUG, Gothenburg, Sweden) cultured on blood-agar plates [Columbia agar (Oxoid, Basingstoke, UK) supplemented with 5% defibrinated horse blood (National Veterinary Institute (SVA), Uppsala, Sweden)] were transferred to brain heart infusion broth (3.7% BHI; Difco, BD Diagnostics, Franklin Lakes, N.J., USA) and incubated in a shaker at 250 rpm+37° C. over night. The culture was thereafter be diluted 1:10 in fresh BHI broth and incubated for additional two hours to reach log-phase growth. The bacteria were pelleted and suspended in 1% BHI medium (BHI broth diluted 100 times in ultra-pure water) to a concentration of 10^7 bacteria/ml as estimated by measuring optical density at 600 nm. Peptides were serially diluted by two-fold steps from 160 μM to 1.25 μM in 1% BHI medium. The peptides (100 μl) were thereafter incubated with bacteria (5 μl á 10^7 bact./ml) for 2 hours at +37° C. Drops (5 μl) of the suspension were placed on blood agar plates. The blood agar plates were incubated over night at +37° C. The MMC99 values, i.e. the lowest peptide concentration needed to achieve a 99% reduction of viable bacteria, were recorded (Table 3). The concentration of the bacterial suspension used in the assay was confirmed by viable counts on blood agar plates.
S. aureus (#1800; CCUG, Gothenburg, Sweden) cultured on blood-agar plates [Columbia agar (Oxoid, Basingstoke, UK) supplemented with 5% defibrinated horse blood (National Veterinary Institute (SVA), Uppsala, Sweden)] were transferred to brain heart infusion broth (3.7% BHI; Difco, BD Diagnostics, Franklin Lakes, N.J., USA) and incubated in a shaker at 250 rpm+37° C. over night. The culture was thereafter be diluted 1:10 in fresh BHI broth and incubated for additional two hours to reach log-phase growth. The bacteria were pelleted and suspended in 1% BHI medium (BHI broth diluted 100 times in ultra-pure water) to a final concentration of 10^7 bacteria/ml as estimated by measuring optical density at 600 nm. Peptides were serially diluted by two-fold steps from 400 μM to 0.78 μM in either 1% BHI medium or in 50% heat inactivated simulated wound fluid [SWF, containing 1 part 0.1% peptone (Oxoid, Basingstoke, UK) in saline and 1 part fetal bovine serum, diluted 2 times in ultra-pure water].
The peptides (100 μl) were thereafter incubated with bacteria (5 μl á 10^7 bact./ml) for 2 hours at +37° C. Drops (5 μl) of the suspension were placed on blood agar plates. The blood agar plates were incubated over night at +37° C. The MMC99 values, i.e. the lowest peptide concentration needed to achieve a 99% reduction of viable bacteria were recorded (Table 6). The concentration of the bacterial suspension used in the assay was confirmed by viable counts on blood agar plates.
as §1, §2

MRSA (CCUG 41879) [6] = assay: In vivo antimicrobial effect in excision wound model in rats; set-up: species or system rat; settings: peptide in H2O 0.1, 0.5 and 2 mg/ml, single administration, two hours, vs control (H2O)
From the text: as §3, with “4. Dose-response” for “5. Dose response”, “(A)” for “(A),”, “infected excision” for “infected”, “rats.” for “pig skin.”, “(n=15” for “(n=10”
The in vivo antimicrobial effects of the peptide 265 (SEQ ID NO: 27) was investigated in an excision wound model in rats. The wounds were inoculated with methicillin resistant S. aureus (MRSA) for two hours, followed by a single administration of peptide or control (H2O) for two hours before termination and harvest of the bacteria.

S. pyogenes (CCUG 4207) = assay: MMC99 assay, S. pyogenes; format: cell-based; settings: Table 8A
Method: as §1, §2

MRSA (CCUG 41879) [7] = assay: MMC99 assay, MRSA; format: cell-based, methicillin resistant S. aureus; settings: Table 8A
Method: as §1, §2

FRQWKRWMRKVFHSWRRW [Peptide 265] was tested, and the “MMC99 K. pneumoniae 1% BHI” value ([1]; 1% BHI) was 3 µg/mL, the “MMC99 K. pneumoniae 50% SWF” value ([1]; 50% SWF) was 25 µg/mL and the “MMC99 E. coli 1% BHI” value (E. coli (CCUG 31246); 1% BHI) was 5 µg/mL. For the same sequence, the “MMC99 E. coli 50% SWF” value (E. coli (CCUG 31246); 50% SWF) was 67 µg/mL, the “MMC99 P. aeruginosa 1% BHI” value ([2]; 1% BHI) was 4 µg/mL and the “MMC99 P. aeruginosa 50% SWF” value ([2]; 50% SWF) was 134 µg/mL. For the same sequence, the “MMC99 A. baumannii 1% BHI” value ([3]; 1% BHI) was under 2 µg/mL, the “MMC99 A. baumannii 50% SWF” value ([3]; 50% SWF) was 12 µg/mL and the “TNF-α at 40 μM peptide” value ([4]; stimulated level without peptide = 100%, basal = 0%, 40 μM peptide) was 13.8%. The “TNF-α at 4 μM peptide” value ([4]; 4 μM peptide) was 87.0%, the “TNF-α at 10 μM peptide” value ([4]; 10 μM peptide) was 31.1% and the “MMC99 S. epidermidis 1% BHI” value ([5]; 1% BHI) was under 2 µg/mL. The “MMC99 S. epidermidis 50% SWF” value ([5]; 50% SWF) was 6 µg/mL, the “MMC99 P. acnes 1% BHI” value (P. acnes (CCUG 1794T); 1% BHI) was under 3 µg/mL and the “MMC99 P. acnes 50% SWF” value (P. acnes (CCUG 1794T); 50% SWF) was 50 µg/mL. For the same sequence, the “MMC99 C. albicans 1% BHI” value (C. albicans (ATCC 64549); 1% BHI) was 6 µg/mL, the “MMC99 C. albicans 50% SWF” value (C. albicans (ATCC 64549); 50% SWF) was 100 µg/mL and the “bacterial colonization of infected wounds in pig skin” value (S. aureus) was “significant reduction in bacterial counts with a dose response relation; also recorded: highly effective”. The “MMC99 S. aureus 1% BHI” value (S. aureus (CCUG 1800); 1% BHI, Table 8A) was 4 µg/mL, the “MMC99 S. aureus 50% SWF” value (S. aureus (CCUG 1800); 50% SWF, Table 8A) was 8 µg/mL and the “MMC99 μM in 1% BHI medium” value (S. aureus (CCUG 1800); screen 2, 1% BHI medium, 2 hours) was 6.25 µM. The “MMC99 μM in 50% SWF” value (S. aureus (CCUG 1800); screen 2, 50% heat inactivated simulated wound fluid, 2 hours) was 12.5 µM, the “bacterial colonization of infected excision wounds in rats” value (MRSA (CCUG 41879) [6]) was “significant reduction in bacterial counts in a dose response fashion; also recorded: pronounced antimicrobial effect” and the “MMC99 S. pyogenes 1% BHI” value (S. pyogenes (CCUG 4207); 1% BHI) was under 3 µg/mL. For the same sequence, the “MMC99 S. pyogenes 50% SWF” value (S. pyogenes (CCUG 4207); 50% SWF) was 25 µg/mL, the “MMC99 MRSA 1% BHI” value (MRSA (CCUG 41879) [7]; 1% BHI) was 6 µg/mL and the “MMC99 MRSA 50% SWF” value (MRSA (CCUG 41879) [7]; 50% SWF) was 50 µg/mL.
